Experimental data: publication PMC2225439, “Amyloid as a Depot for the Formulation of Long-Acting Drugs” (PLoS Biology, 2008)
Where a SMILES comes first, the peptide text is derived from it. [ ]: non-standard residue; d: D form. The star is where a group is joined. dPhe(4-NHCONH2) = NC(=O)Nc1ccc(C[C@@H](N)C(=O)O)cc1; Dihydroorotyl(S) = O=C1C[C@@H](C(=O)*)NC(=O)N1; dPhe(4-Cl) = N[C@H](Cc1ccc(Cl)cc1)C(=O)O; Phe(4-NH2) = Nc1ccc(C[C@H](N)C(=O)O)cc1; d2Nal = N[C@H](Cc1ccc2ccccc2c1)C(=O)O; Lys(iPr) = CC(C)NCCCC[C@H](N)C(=O)O; d3Pal = N[C@H](Cc1cccnc1)C(=O)O

How the values were obtained:
[1] = tested on: histamine release; conditions: cited from earlier work
[2] = tested on: mouse embryo fibroblast cells; assay: LDH release assay; type: cell-based; conditions: 1 μM Aβ(1–40); triplicate
Source text: Since amyloid fibrils can be toxic to cells and are associated with several neurological diseases, it is a concern whether or not amyloid fibrils of GnRH analogs are able to generate a toxic response as well. To measure the potential toxicity of GnRH analogs, we used the lactate dehydrogenase (LDH) release assay for cell killing. The LDH release assay is a widely used assay to determine the cytotoxicity of chemicals or environmental toxic factors. LDH is a soluble cytosolic enzyme that is released into the culture medium following the loss of membrane integrity. For the LDH assay, we used mouse embryo fibroblast cells and aged peptide samples at 60 μM in 5% D-mannitol.
For the LDH assay, we used mouse embryo fibroblast cells and peptide fibrils at 60 μM final concentration in 5% D-mannitol. For the buffer control, we used 5% D-mannitol in water. We also used 1 μM Aβ(1–40) and a cell lysate to compare our data. The assay was done using a kit (Sigma) as described by the manufacturer. The assays were done in triplicate and the data presented as the standard error of the mean.

Row | Molecule | safety margin with regard to histamine release [1] | toxicity (LDH release) [2]
1 | CC(=O)N[C@H](Cc1ccc2ccccc2c1)C(=O)N[C@H](Cc1ccc(Cl)cc1)C(=O)N[C@H](Cc1cccnc1)C(=O)N[C@@H](CO)C(=O)N[C@@H](Cc1ccc(NC(=O)[C@@H]2CC(=O)NC(=O)N2)cc1)C(=O)N[C@H](Cc1ccc(NC(N)=O)cc1)C(=O)N[C@@H](CC(C)C)C(=O)N[C@@H](CCCCNC(C)C)C(=O)N1CCC[C@H]1C(=O)N[C@H](C)C(N)=O [L13, Ac-DNal-DCpa-DPal-Ser-Aph(LHor)-DAph(Cbm)-Leu-ILys-Pro-DAla-NH2] (Ac-[d2Nal][dPhe(4-Cl)][d3Pal]S[Phe(4-NH2)](Dihydroorotyl(S))[dPhe(4-NHCONH2)]L[Lys(iPr)]P[dA]-NH2) | good safety margin | –
2 | Aβ(1–40): amyloid peptide Aβ(1–40), used as positive control in the LDH release assay | – | neither the peptide analog samples nor Aβ(1–40) generated toxicity
